Experimental data taken from US4334078A, “Dibenzothiophenes” (Hoffmann-La Roche Inc., priority 1980, dated 1982).

System: mice
Test: acute toxicity (LD50)
Assay type: in vivo
Conditions: p.o. in mice

SMILES: O=C(O)Cc1ccc2c(c1)sc1ccc(Cl)cc12 [8-chloro-dibenzothiophene-3-acetic acid]
- LD50: 775 mg
